# Reference: ChEMBL document CHEMBL1201862, “PubChem BioAssay data set” (2004)
#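 Compound exposure: 48 hours, 5 concentrations, 96-well plates. GI50 marks 50% less growth.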 Calls of active or inactive are those of the source. Rule as the data show it: active = GI50 up to about 1.1 µM and inactive = higher.
# Tests used:
# Experiment in all cases: NCI tumour cell line growth inhibition, 48 h
# 786-0 = tested on: 786-0
# ACHN = tested on: ACHN
# BT-549 = tested on: BT-549
# EKVX = tested on: EKVX
# HOP-92 = tested on: HOP-92
# HT-29 = tested on: HT-29
# M14 = tested on: M14
# NCI-H522 = tested on: NCI-H522
# OVCAR-4 = tested on: OVCAR-4
# OVCAR-5 = tested on: OVCAR-5
# RPMI-8226 = tested on: RPMI-8226
# SF-268 = tested on: SF-268
# SF-295 = tested on: SF-295
# SNB-75 = tested on: SNB-75
# SR = tested on: SR
# UACC-62 = tested on: UACC-62
# LXFL 529 = tested on: LXFL 529
# SNB-78 = tested on: SNB-78
# DMS-273 = tested on: DMS-273
SMILES,GI50 (786-0),GI50 (ACHN),GI50 (BT-549),GI50 (EKVX),GI50 (HOP-92),GI50 (HT-29),GI50 (M14),GI50 (NCI-H522),GI50 (OVCAR-4),GI50 (OVCAR-5),GI50 (RPMI-8226),GI50 (SF-268),GI50 (SF-295),GI50 (SNB-75),GI50 (SR),GI50 (UACC-62),GI50 (LXFL 529),GI50 (SNB-78),GI50 (DMS-273)
Cc1ccc(C(=O)Nc2ccc(CP(=O)(O)O)cc2)cc1NC(=O)c1cccc(N)c1,> 100 µM (inactive),> 100 µM (inactive),> 100 µM (inactive),> 100 µM (inactive),> 100 µM (inactive),> 100 µM (inactive),> 100 µM (inactive),> 100 µM (inactive),> 100 µM (inactive),> 100 µM (inactive),> 100 µM (inactive),> 100 µM (inactive),> 100 µM (inactive),> 100 µM (inactive),> 100 µM (inactive),> 100 µM (inactive),–,–,–
O=C1CCC2(c3ccc(F)cc3)Nc3ncccc3N12 (configuration not stated),> 100 µM (inactive),> 100 µM (inactive),–,> 100 µM (inactive),> 100 µM (inactive),> 100 µM (inactive),> 100 µM (inactive),> 100 µM (inactive),> 100 µM (inactive),> 100 µM (inactive),> 100 µM (inactive),> 100 µM (inactive),> 100 µM (inactive),70.1 µM (inactive),–,> 100 µM (inactive),> 100 µM (inactive),> 100 µM (inactive),–
O=C(O)C1CCCN1Cc1ccc2c(c1)OCO2 (configuration not stated),> 100 µM (inactive),> 100 µM (inactive),> 100 µM (inactive),> 100 µM (inactive),> 100 µM (inactive),> 100 µM (inactive),> 100 µM (inactive),> 100 µM (inactive),> 100 µM (inactive),> 100 µM (inactive),> 100 µM (inactive),> 100 µM (inactive),> 100 µM (inactive),18.4 µM (inactive),14.5 µM (inactive),> 100 µM (inactive),–,–,–
CC12N=NNC1C(=O)NC2=O (configuration not stated),> 100 µM (inactive),> 100 µM (inactive),–,> 100 µM (inactive),> 100 µM (inactive),> 100 µM (inactive),–,> 100 µM (inactive),> 100 µM (inactive),–,> 100 µM (inactive),> 100 µM (inactive),> 100 µM (inactive),> 100 µM (inactive),> 100 µM (inactive),> 100 µM (inactive),> 100 µM (inactive),> 100 µM (inactive),> 100 µM (inactive)
Nc1nc2c(ncn2Cc2ccc(CO)cc2)c(=O)[nH]1,> 100 µM (inactive),> 100 µM (inactive),> 100 µM (inactive),> 100 µM (inactive),> 100 µM (inactive),> 100 µM (inactive),> 100 µM (inactive),> 100 µM (inactive),> 100 µM (inactive),> 100 µM (inactive),> 100 µM (inactive),> 100 µM (inactive),> 100 µM (inactive),> 100 µM (inactive),95.5 µM (inactive),> 100 µM (inactive),–,–,–
Cc1cn(CC2=NCCN2)c(=O)[nH]c1=O,> 100 µM (inactive),> 100 µM (inactive),> 100 µM (inactive),> 100 µM (inactive),> 100 µM (inactive),> 100 µM (inactive),> 100 µM (inactive),> 100 µM (inactive),> 100 µM (inactive),> 100 µM (inactive),> 100 µM (inactive),> 100 µM (inactive),> 100 µM (inactive),> 100 µM (inactive),> 100 µM (inactive),> 100 µM (inactive),–,–,–
OCCSCC(O)Cn1cnc2c(O)nc(Nc3ccccc3)nc21 (configuration not stated),> 100 µM (inactive),> 100 µM (inactive),> 100 µM (inactive),> 100 µM (inactive),> 100 µM (inactive),> 100 µM (inactive),> 100 µM (inactive),> 100 µM (inactive),> 100 µM (inactive),> 100 µM (inactive),> 100 µM (inactive),> 100 µM (inactive),> 100 µM (inactive),> 100 µM (inactive),> 100 µM (inactive),> 100 µM (inactive),–,–,–
C=CCN1CN(C2CCCCC2)CSC1=S,3.27 µM (inactive),4.02 µM (inactive),7.69 µM (inactive),15.6 µM (inactive),5.18 µM (inactive),3.48 µM (inactive),2.77 µM (inactive),2.8 µM (inactive),12.8 µM (inactive),9.08 µM (inactive),1.04 µM (active),2.32 µM (inactive),28.4 µM (inactive),6.12 µM (inactive),0.148 µM (active),5.86 µM (inactive),–,–,–
C[C@@]12C[C@@H](c3ccccc3O1)N1CCCCSC1=N2,> 100 µM (inactive),> 100 µM (inactive),> 100 µM (inactive),> 100 µM (inactive),> 100 µM (inactive),> 100 µM (inactive),> 100 µM (inactive),> 100 µM (inactive),> 100 µM (inactive),> 100 µM (inactive),> 100 µM (inactive),> 100 µM (inactive),> 100 µM (inactive),> 100 µM (inactive),> 100 µM (inactive),> 100 µM (inactive),–,–,–
Cc1cn(C2CC(O)C(Cn3nncc3Cn3ccc(=O)[nH]c3=O)O2)c(=O)[nH]c1=O (configuration not stated),> 100 µM (inactive),> 100 µM (inactive),> 100 µM (inactive),> 100 µM (inactive),> 100 µM (inactive),> 100 µM (inactive),> 100 µM (inactive),> 100 µM (inactive),> 100 µM (inactive),> 100 µM (inactive),> 100 µM (inactive),> 100 µM (inactive),> 100 µM (inactive),> 100 µM (inactive),> 100 µM (inactive),> 100 µM (inactive),–,–,–
O=C(Nc1sccc1S(=O)(=O)c1ccccc1)c1cccnc1,12 µM (inactive),64.9 µM (inactive),> 37.1 µM (inactive),48.9 µM (inactive),> 42.4 µM (inactive),5.68 µM (inactive),6.08 µM (inactive),7.98 µM (inactive),> 100 µM (inactive),> 70.6 µM (inactive),7.52 µM (inactive),57.4 µM (inactive),8.63 µM (inactive),19.1 µM (inactive),5.2 µM (inactive),14 µM (inactive),–,–,–
CCOC(=O)c1c(C)n(-c2ccc(C)cc2)c2c1cc(O)c1[nH]c3c(c12)CCCC3,16.9 µM (inactive),22.1 µM (inactive),10.1 µM (inactive),26.1 µM (inactive),2.92 µM (inactive),14.9 µM (inactive),16.6 µM (inactive),12.7 µM (inactive),13.7 µM (inactive),23.5 µM (inactive),4.07 µM (inactive),17.5 µM (inactive),20.6 µM (inactive),0.0658 µM (active),0.0566 µM (active),17.3 µM (inactive),–,–,–
CCCCCCC(=O)C/C(=N/NC(N)=S)C(=O)NC1C2CC3CC(C2)CC1C3 (configuration not stated),> 100 µM (inactive),> 100 µM (inactive),–,> 100 µM (inactive),86.1 µM (inactive),> 100 µM (inactive),> 100 µM (inactive),–,> 100 µM (inactive),> 100 µM (inactive),> 100 µM (inactive),> 100 µM (inactive),> 100 µM (inactive),> 100 µM (inactive),–,> 100 µM (inactive),> 100 µM (inactive),> 100 µM (inactive),–
CNc1ccc(Cl)cc1C(=O)N1CCC[C@H]1CO,> 100 µM (inactive),> 100 µM (inactive),> 100 µM (inactive),> 100 µM (inactive),> 58.6 µM (inactive),> 100 µM (inactive),> 100 µM (inactive),> 100 µM (inactive),> 100 µM (inactive),> 100 µM (inactive),> 100 µM (inactive),> 100 µM (inactive),> 100 µM (inactive),99.3 µM (inactive),80.9 µM (inactive),> 100 µM (inactive),–,–,–
CCN(CC)c1ncnc2c1ncn2CCNC(CO)(CO)CO,> 100 µM (inactive),> 100 µM (inactive),> 100 µM (inactive),> 100 µM (inactive),> 100 µM (inactive),> 100 µM (inactive),> 100 µM (inactive),> 100 µM (inactive),> 100 µM (inactive),> 100 µM (inactive),> 100 µM (inactive),> 100 µM (inactive),> 100 µM (inactive),> 100 µM (inactive),> 100 µM (inactive),> 100 µM (inactive),–,–,–
O=C(CC1Sc2ccccc2NC1=O)Nc1cccc(Cl)c1 (configuration not stated),39.4 µM (inactive),31.8 µM (inactive),–,22.5 µM (inactive),25.5 µM (inactive),57.3 µM (inactive),38.3 µM (inactive),–,44.8 µM (inactive),> 100 µM (inactive),21.7 µM (inactive),34.9 µM (inactive),59.3 µM (inactive),32.4 µM (inactive),34 µM (inactive),28.3 µM (inactive),42.1 µM (inactive),47.9 µM (inactive),28.2 µM (inactive)
Oc1cccc2ccc(Br)nc12,> 100 µM (inactive),> 100 µM (inactive),> 100 µM (inactive),> 100 µM (inactive),> 100 µM (inactive),> 100 µM (inactive),> 100 µM (inactive),> 100 µM (inactive),> 100 µM (inactive),> 100 µM (inactive),97.9 µM (inactive),> 100 µM (inactive),> 100 µM (inactive),> 100 µM (inactive),62.4 µM (inactive),> 100 µM (inactive),–,–,–
